{"source": "patent US10144726B2", "about": "“Modulators of the p70S6 kinase for use in the treatment of brain disorders and triple-negative breast cancer” (SENTINEL ONCOLOGY LIMITED, priority 2015, dated 2018)", "key": {"[1]": {"assay": "Brain and plasma concentrations in an in vivo cassette mouse model", "design": "species or system male CD-1 mice", "settings": "male, PO cassette, 2.5 mg/kg per compound", "procedure": "The compounds of this invention were evaluated in an in vivo cassette mouse model to determine brain and plasma concentrations following oral dosing. This is an industry-standard and recognised means to assess brain penetration of small molecules (for recent literature article, refer to In vitro permeability analysis, pharmacokinetic and brain distribution study in mice of imperatorin, isoimperatorin and cnidilin in Radix Angelicae Dahuricae, Fitoterapia, Volume 85, March 2013 , Pages 144-153). It is also recognised that higher brain concentrations (and higher ratios of brain: plasma concentration) lead to greater exposure in the brain—this is clearly advantageous if the brain is the site of action.\nFor a single cassette study, male CD-1 mice were used (n=3 per timepoint, two timepoints: 1.0 hr and 3.0 hr).\n5 compounds were dosed PO per cassette (dose level 2.5 mg/kg per compound, dose conc. 0.25 mg/ml, dose volume 10.0 ml/kg).\nFormulation used to solubilize compounds: 10% DMSO/90% hydroxypropyl-β-cyclodextrin (20% w/v aqueous)\nSampling was terminal and plasma and brain matrices were generated. To prepare plasma samples, protein was precipitated using acetonitrile. To prepare brain samples, homogenisation and protein precipitation was performed with acetonitrile. Samples were analysed using HPLC-TOF MS using electrospray ionisation."}, "[2]": {"tested_on": "MCF-7 cells", "assay": "MCF-7 proliferation assay (Alamar blue, 72 h)", "assay_type": "cell-based", "settings": "Homo sapiens, MCF7, 72 h; read-out: (c) MCF-7 proliferation IC50", "procedure": "The following assay was used to determine the ability of test compounds to inhibit cell growth.\nThe following protocol was used: • 1) MCF-7 cells were seeded in 96-well plates at 5000 cells per well and allowed to adhere overnight prior to addition of compound or vehicle control. • 2) Test compounds were prepared from 10 mM DMSO stocks to give a final concentration range of 100 μM, 30 μM, 10 μM, 3 μM, 1 μM, 0.3 μM, 0.1 μM, 0.03 μM, 0.01 μM and vehicle control. The DMSO content was constant at 1%. • 3) Test compounds were incubated with the cells for 72 h at 37° C. 5% CO2 in a humidified atmosphere. • 4) Alamar blue 10% (v/v) was then added and incubated for a further 6 h, and fluorescent product detected using the BMG FLUOstar plate reader. • 5) Data were analysed using a 4-parameter logistic equation in GraphPad Prism."}, "[3]": {"tested_on": "MDA-MB-231 (luc) cells", "assay": "Control of brain metastases arising from MDA-MB-231 (luc) cells after intra-cardiac injection", "assay_type": "in vivo", "excerpt": "In order to test the efficacy of an inhibitor of S6K1 in preventing brain metastases arising from TNBC cells, an in vivo mouse model was established:\nUsing a luciferase-tagged TNBC cell line (MDA-MB-231 (luc)) it was possible to track the spread of metastatic cells to the brain and other major organs via mouse whole-body imaging.\nThe MDA-MB-231(luc) cell-line was derived from MDA-MB-231 cells originally purchased from ATCC. These cells were stably transfected with pGL4.51 (Promega) using Lipofectamine 2000 (Life Technologies). Stably transfected colonies were selected for using neomycin and the most highly expressing clone was expanded. The cells have similar in vivo growth characteristics as the parental MDA-MB-231 cells.\nFemale athymic mice (Hsd:Athymic Nude-Foxn1^nu) were purchased from Harlan (UK) and acclimatised for 7 days prior to study commencement. Animals were housed in\nThe dosing route was p.o. and the formulation was as follows: 10% DMSO/90% hydroxypropyl-β-cyclodextrin (20% w/v aqueous)\nOn day 0 animals were anaesthetized and injected with 1×10^5 MDA-MB-231 (luc) cells directly into the heart. Intra-cardiac injection was chosen as this method leads to brain metastases. On day +1 animals were imaged using a Xenogen IVIS machine (following IP injection of 150 mg/kg) of D-luciferin). Evidence of light only in the cardiac area was indicative of a failed implantation and these animals were removed from the study. The experiment was commenced with 7 animals per treatment group to guarantee 5 animals per group completed the study.\nAnimals were imaged on 3 occasions during the study: 24 hours following intracardiac injection, 35 days after implantation and at the end of the study (70 days after implantation). For imaging, animals were first injected i.p. with D-luciferin (150 mg/kg) and 10 minutes later the animals were imaged under anaesthesia.\nAt the end of the 70 days, animals were imaged using the same method as described at 35 days. Following this the animals were then sacrificed and brain, liver and lungs were removed and imaged individually for metastatic spread."}, "[4]": {"tested_on": "MDA-MB-231 cells", "assay": "Tumour initiation and metastasis in an in vivo model of triple negative breast cancer (MDA-MB-231, mammary fat pad)", "design": "species or system female athymic nude mice", "excerpt": "In order to test the efficacy of an inhibitor of S6K1 in an in vivo model of tumour initiation and metastasis, the following experiment was established:\nA total of 30 female athymic nude mice (Hsd:Athymic Nude-Foxn1^nu) were purchased from Harlan (UK) and acclimatised for 7 days prior to study commencement. Animals were housed in IVC cages (5 per cage) with individual mice identified by ear punch. All animals were allowed free access to a standard certified commercial diet and sanitised water during the study. The holding room was maintained under standard conditions: 20-24° C., 40-70% humidity and a 12 h light/dark cycle.\nOn day −1, animals were randomly assigned to treatment groups as indicated in the table below, and drug treatment commenced. On day 0, MDA-MB-231 cells (1×10^6 in matrigel) were implanted into the second mammary fat pad.\nThe dosing route was PO and the formulation was as follows: 10% DMSO/90% hydroxypropyl-β-cyclodextrin (20% w/v aqueous)\n(1) Time to palpation of tumour (latency) (2) tumour volume (3) tumour and organ weights as a measure of metastasis (4) visual appearance of metastatic nodules in the lungs"}, "[5]": {"settings": "250 mg/kg p.o. QD 21 days, vs vehicle"}}, "note": "Where two headings read alike, the source gives them in different places."}
{"smiles": "C[C@@H](Nc1cnc2cc(-c3cn[nH]c3)ccc2n1)c1cccc(Cl)c1", "note": "[Example 15]", "values": [{"measurement": "concentration at 3 h", "setting": "[1]; CD-1, brain, read-out: (d) Brain conc. at 3 hours", "result": 2430, "unit": "nM"}, {"measurement": "Kp at 3 h", "setting": "[1]; CD-1, brain, read-out: (d) Brain: Plasma ratio at 3 hours", "result": 2}, {"measurement": "concentration at 3 h", "setting": "[1]; CD-1, plasma, read-out: (d) Plasma conc. at 3 hours", "result": 1190, "unit": "nM"}, {"measurement": "IC50", "setting": "[2]", "result": 12, "unit": "µM"}, {"measurement": "Incidence of metastasis Brain", "setting": "[3]; 125 mg/kg p.o. BID x 70 days", "result": 0, "unit": "%"}, {"measurement": "Incidence of metastasis Liver", "setting": "[3]; 125 mg/kg p.o. BID x 70 days", "result": 0, "unit": "%"}, {"measurement": "Incidence of metastasis Lung", "setting": "[3]; 125 mg/kg p.o. BID x 70 days", "result": 40, "unit": "%"}, {"measurement": "No. deaths on study", "setting": "[3]; 125 mg/kg p.o. BID x 70 days", "result": 0}, {"measurement": "Animals with visible metastases, whole body imaging", "setting": "[3]; 125 mg/kg p.o. BID, at 35 days", "result": "0 out of 5"}, {"measurement": "Tolerability", "setting": "[3]; 70 consecutive days of BID dosing, no treatment related deaths or adverse clinical signs", "result": "well-tolerated"}, {"measurement": "Mean no. of nodules per lung", "setting": "[4]; 250 mg/kg QD × 21, at necroscopy", "result": 1}, {"measurement": "Lung weight at day 21", "setting": "[4]; [5]", "result": "reduction in weight of lungs"}, {"measurement": "Rate of tumour incidence", "setting": "[4]; [5]", "result": "decreases"}, {"measurement": "Time to palpation of tumour (latency)", "setting": "[4]; [5]", "result": "delays"}, {"measurement": "Tumour weight at day 21", "setting": "[4]; [5]", "result": "weighed significantly less"}, {"measurement": "Tumour volume", "setting": "[4]; 250 mg/kg p.o. QD 21 days, vs vehicle, p<0.05", "result": "reduction in volume of tumours which is statistically significant over vehicle"}]}
